Data published in US8575176B2, “Heteroaromatic pyrazinoylguanidine sodium channel blockers” (Parion Sciences, Inc., priority 2008, dated 2013).
Structures can show the parent of a compound that is named as a salt.

What was measured:
[1] = biological target: T1, epithelial sodium channels (ENaC) (Homo sapiens, UniProt P37088+P51168+P51170); assay: In vitro sodium channel blocking activity (short circuit current, Ussing chambers), human airway cells; format: cell-based; conditions: freshly excised cell from human airways
T1 construct: endogenous in cells; host or cells: primary human airway epithelial cells cultured at air-liquid interface
T1 sequence (P37088 1-669): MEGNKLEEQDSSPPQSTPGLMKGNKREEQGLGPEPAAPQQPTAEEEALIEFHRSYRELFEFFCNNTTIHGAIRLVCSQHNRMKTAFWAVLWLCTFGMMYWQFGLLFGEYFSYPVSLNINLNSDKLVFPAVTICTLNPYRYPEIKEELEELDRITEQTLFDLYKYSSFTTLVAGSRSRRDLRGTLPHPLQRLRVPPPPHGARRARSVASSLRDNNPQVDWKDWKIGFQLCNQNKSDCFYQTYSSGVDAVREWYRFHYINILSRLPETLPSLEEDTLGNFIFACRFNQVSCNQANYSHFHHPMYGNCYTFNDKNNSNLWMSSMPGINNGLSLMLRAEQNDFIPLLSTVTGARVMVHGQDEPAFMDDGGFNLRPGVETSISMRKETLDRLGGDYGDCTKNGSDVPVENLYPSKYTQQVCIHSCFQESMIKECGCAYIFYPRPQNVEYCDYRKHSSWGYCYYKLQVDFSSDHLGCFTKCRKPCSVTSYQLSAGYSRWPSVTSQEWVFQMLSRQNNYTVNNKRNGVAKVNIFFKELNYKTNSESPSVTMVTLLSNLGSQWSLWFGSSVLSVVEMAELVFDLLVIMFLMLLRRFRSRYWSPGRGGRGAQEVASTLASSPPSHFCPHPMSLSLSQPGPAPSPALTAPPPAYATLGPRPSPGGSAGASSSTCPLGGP
T1 sequence (P51168 1-640): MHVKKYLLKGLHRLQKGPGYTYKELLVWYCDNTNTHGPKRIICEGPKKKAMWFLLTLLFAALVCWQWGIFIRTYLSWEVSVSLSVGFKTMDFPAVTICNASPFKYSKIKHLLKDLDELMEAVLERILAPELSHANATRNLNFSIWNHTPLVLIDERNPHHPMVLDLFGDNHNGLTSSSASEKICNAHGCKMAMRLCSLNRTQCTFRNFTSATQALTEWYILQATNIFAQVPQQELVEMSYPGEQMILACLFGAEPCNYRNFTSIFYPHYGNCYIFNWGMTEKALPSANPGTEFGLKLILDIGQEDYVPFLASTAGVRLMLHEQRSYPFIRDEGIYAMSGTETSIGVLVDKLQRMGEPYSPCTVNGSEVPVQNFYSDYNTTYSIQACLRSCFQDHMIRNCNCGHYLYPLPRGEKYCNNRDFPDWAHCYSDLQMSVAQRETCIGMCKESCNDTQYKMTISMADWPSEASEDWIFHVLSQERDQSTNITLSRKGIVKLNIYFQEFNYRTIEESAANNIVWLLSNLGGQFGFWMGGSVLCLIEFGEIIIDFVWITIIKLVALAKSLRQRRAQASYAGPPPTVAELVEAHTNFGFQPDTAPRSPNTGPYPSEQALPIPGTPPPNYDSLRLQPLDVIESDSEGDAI
T1 sequence (P51170 1-649): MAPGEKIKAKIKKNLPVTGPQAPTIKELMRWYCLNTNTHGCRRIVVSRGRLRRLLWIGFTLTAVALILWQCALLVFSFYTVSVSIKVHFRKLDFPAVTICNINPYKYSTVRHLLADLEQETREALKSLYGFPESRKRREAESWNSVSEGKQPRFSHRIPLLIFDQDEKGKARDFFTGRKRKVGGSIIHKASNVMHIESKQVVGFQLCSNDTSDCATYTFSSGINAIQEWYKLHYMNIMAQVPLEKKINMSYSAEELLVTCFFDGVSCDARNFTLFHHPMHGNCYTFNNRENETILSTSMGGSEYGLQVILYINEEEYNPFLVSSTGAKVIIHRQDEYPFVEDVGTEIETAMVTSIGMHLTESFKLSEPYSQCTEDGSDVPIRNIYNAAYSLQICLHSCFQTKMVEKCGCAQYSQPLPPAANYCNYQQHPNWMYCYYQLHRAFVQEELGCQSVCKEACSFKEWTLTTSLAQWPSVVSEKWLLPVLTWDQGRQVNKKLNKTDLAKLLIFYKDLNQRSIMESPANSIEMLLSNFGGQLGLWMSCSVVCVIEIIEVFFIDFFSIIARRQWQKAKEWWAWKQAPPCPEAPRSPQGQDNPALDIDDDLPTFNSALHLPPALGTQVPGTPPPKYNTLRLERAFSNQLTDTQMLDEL
Protocol: In Vitro Measure of Sodium Channel Blocking Activity and Reversibility
(§1) One assay used to assess mechanism of action and/or potency of the compounds of the present invention involves the determination of lumenal drug inhibition of airway epithelial sodium currents measured under short circuit current (ISC) using airway epithelial monolayers mounted in Ussing chambers. Cells obtained from freshly excised human, dog, sheep or rodent airways are seeded onto porous 0.4 micron Snapwell™ Inserts (CoStar), cultured at air-liquid interface (ALI) conditions in hormonally defined media, and assayed for sodium transport activity (ISC) while bathed in Krebs Bicarbonate Ringer (KBR) in Using chambers. All test drug additions are to the lumenal bath with half-log dose addition protocols (from 1×10^−11 M to 3×10^−5 M), and the cumulative change in ISC (inhibition) recorded. All drugs are prepared in dimethyl sulfoxide as stock solutions at a concentration of 1×10^−2 M and stored at −20° C. […] After the maximal concentration ([…]) is administered, the lumenal bath is exchanged three times with fresh drug-free KBR solution, and the resultant ISC measured after each wash for approximately 5 minutes in duration. Reversibility is defined as the percent return to the baseline value for sodium current after the third wash. All data from the voltage clamps are collected via a computer interface and analyzed off-line.
(§2) Dose-effect relationships for all compounds are considered and analyzed by the Prism 3.0 program.

[2] = biological target: T2, epithelial sodium channels (ENaC) (Canis lupus familiaris, UniProt A0A8I3MKE6+A0A8I3Q679+Q95165); assay: In vitro sodium channel blocking activity (short circuit current, Ussing chambers), dog airway cells; format: cell-based; conditions: freshly excised cell from dog airways
T2 sequence (A0A8I3Q679 1-649): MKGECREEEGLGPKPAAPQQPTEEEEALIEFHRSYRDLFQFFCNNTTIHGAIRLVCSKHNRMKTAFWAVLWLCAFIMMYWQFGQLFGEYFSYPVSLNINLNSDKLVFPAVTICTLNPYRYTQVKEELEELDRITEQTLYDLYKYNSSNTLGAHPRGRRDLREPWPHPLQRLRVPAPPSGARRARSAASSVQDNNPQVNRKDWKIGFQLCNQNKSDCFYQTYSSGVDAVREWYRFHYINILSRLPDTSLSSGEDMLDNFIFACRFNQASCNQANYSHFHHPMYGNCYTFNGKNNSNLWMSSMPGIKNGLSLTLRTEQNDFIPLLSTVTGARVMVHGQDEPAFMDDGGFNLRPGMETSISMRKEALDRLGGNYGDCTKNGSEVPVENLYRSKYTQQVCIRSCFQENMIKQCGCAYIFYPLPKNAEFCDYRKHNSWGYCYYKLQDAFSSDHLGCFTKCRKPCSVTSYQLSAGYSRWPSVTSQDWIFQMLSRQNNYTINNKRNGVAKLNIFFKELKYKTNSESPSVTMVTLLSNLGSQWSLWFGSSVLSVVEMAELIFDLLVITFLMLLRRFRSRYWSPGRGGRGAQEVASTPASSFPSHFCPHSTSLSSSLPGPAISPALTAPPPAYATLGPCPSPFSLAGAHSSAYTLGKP
T2 sequence (Q95165 1-641): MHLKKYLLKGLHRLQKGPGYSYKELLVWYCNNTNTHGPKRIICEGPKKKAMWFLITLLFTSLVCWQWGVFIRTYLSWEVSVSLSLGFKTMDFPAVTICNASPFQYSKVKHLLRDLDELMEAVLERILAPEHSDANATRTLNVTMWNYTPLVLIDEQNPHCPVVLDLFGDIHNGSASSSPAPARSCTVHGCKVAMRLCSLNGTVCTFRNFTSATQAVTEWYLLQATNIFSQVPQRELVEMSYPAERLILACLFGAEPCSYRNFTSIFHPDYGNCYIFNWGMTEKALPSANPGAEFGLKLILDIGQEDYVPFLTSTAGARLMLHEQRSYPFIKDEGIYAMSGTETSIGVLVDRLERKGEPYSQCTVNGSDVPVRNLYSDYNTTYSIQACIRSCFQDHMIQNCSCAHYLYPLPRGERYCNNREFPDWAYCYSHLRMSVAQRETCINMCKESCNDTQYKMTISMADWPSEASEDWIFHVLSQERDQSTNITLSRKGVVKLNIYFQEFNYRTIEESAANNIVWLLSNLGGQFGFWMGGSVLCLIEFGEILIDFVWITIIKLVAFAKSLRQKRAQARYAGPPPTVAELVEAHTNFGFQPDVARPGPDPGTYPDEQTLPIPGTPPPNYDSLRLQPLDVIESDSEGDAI
T2 sequence (A0A8I3MKE6 1-646): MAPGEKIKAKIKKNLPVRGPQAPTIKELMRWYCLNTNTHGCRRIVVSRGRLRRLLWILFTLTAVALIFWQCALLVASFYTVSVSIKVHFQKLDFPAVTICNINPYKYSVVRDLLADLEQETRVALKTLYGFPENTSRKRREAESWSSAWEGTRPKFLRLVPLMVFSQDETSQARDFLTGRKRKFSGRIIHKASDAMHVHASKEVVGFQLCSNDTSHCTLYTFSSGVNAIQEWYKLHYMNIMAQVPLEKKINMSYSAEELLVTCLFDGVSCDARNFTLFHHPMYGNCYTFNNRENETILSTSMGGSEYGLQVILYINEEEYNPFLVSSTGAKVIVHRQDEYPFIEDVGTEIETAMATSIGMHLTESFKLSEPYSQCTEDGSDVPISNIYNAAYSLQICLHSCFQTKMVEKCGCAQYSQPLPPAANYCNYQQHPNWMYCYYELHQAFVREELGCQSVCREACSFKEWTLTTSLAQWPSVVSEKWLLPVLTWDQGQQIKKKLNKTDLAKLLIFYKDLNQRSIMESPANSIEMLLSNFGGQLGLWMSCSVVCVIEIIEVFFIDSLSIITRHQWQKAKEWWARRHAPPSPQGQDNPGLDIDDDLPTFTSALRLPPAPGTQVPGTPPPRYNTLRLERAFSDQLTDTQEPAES
Protocol: as §1, with “Reversibility is defined as the percent return to the baseline value for sodium current after the third wash.” left out
as §2

| Potency of Sodium Channel Blockade Relative to Amiloride [1] | melting point [°C] | SMILES | IC50 [2] [nM] |
| --- | --- | --- | --- |
| 63 |  | N=C(NCCCCc1ccc2cc(OCC(O)CO)ccc2c1)NC(=O)c1nc(Cl)c(N)nc1N (centres unmarked) [Compound 34, 3,5-Diamino-6-chloro-N—(N-{4-[6-(2,3-dihydropropoxy)naphthalen-2-yl]butyl}carbamimidoyl)pyrazine-2-carboxamide Methanesulfonic Acid Salt] |  |
| 30 | 115 to 118 | C[C@H](O)C(=O)O.N=C(NCCCCc1ccc(OCC(O)CO)c2ccccc12)NC(=O)c1cc(Cl)c(N)cc1N [Compound 26, 2,4-Diamino-5-chloro-N—(N-{4-[4-(2,3-dihydroxypropoxy)naphthalen-1-yl]butyl}carbamimidoyl)benzamide L-(+)-Lactic Acid Salt] |  |
| 164 |  | CS(=O)(=O)O.N=C(NCCCCc1ccc(OCCCN)c2ccccc12)NC(=O)c1nc(Cl)c(N)nc1N [Compound 72, 3,5-Diamino-N—(N-{4-[4-(3-aminopropoxy)naphthalen-1-yl]butyl}carbamimidoyl)-6-chloropyrazine-2-carboxamide Methanesulfonic Acid Salt] |  |
|  |  | CC1OC[C@@H](O)[C@H]([C@H](O)[C@@H](O)CNCCCOc2ccc3cc(CCCCN)ccc3c2)O1 (some centres unmarked) [Compound 105] | 23.5 |
